Data set [1] concerns Enterococcus faecalis. Briefly: Antibacterial activity against Enterococcus faecalis after 24 hrs by broth microdilution method. It is filed as functional. To be noted: read-out: MIC. A general note: Dilution methods test growth across graded concentrations, often in twofold steps.
Data set [2] has as its system Staphylococcus aureus. The data set is described as follows: Antibacterial activity against Staphylococcus aureus Smith after 24 hrs by broth microdilution method. It is filed as functional. To be noted: read-out: MIC.
Data set [3] relates to Staphylococcus aureus. The data set is described as follows: Antibacterial activity against methicillin-resistant Staphylococcus aureus clinical isolate after 24 hrs by broth microdilution method. It is filed as functional. To be noted: read-out: MIC.
For data set [4], the system named is Staphylococcus aureus. Briefly: Antibacterial activity against methicillin-resistant and vancomycin-intermediate resistant Staphylococcus aureus clinical isolate after 24 hrs by broth microdilution method. The class given is functional. To be noted: read-out: MIC.
The subject of data set [5] is Staphylococcus aureus. The data set is described as follows: Antibacterial activity against vancomycin-intermediate resistant Staphylococcus aureus clinical isolate after 24 hrs by broth microdilution method. The class given is functional.
Another data set concerns Streptococcus pyogenes. The data set is described as follows: Antibacterial activity against Streptococcus pyogenes C203 after 24 hrs by broth microdilution method. The class given is functional. To be noted: C203, 24 h, read-out: MIC.
The test system of data set [6] is Enterococcus faecium. The data set is described as follows: Antibacterial activity against Enterococcus faecium after 24 hrs by broth microdilution method. The class given is functional. To be noted: read-out: MIC.
For data set [7], the system named is Enterococcus faecium. The data set is described as follows: Antibacterial activity against vancomycin A-resistant Enterococcus faecium clinical isolate after 24 hrs by broth microdilution method. It is filed as functional. The settings on record: read-out: MIC.
The next data set concerns Escherichia coli. The data set is described as follows: Antibacterial activity against Escherichia coli SKF-12140 after 24 hrs by broth microdilution method. The class given is functional. To be noted: read-out: MIC.
The subject of another data set is Candida albicans. Briefly: Antifungal activity against Candida albicans SKF-2270 after 24 hrs by broth microdilution method. The settings on record: read-out: MIC. It is filed as functional.
Data set [8] is described as follows: Toxicity assessed as hemolysis in erythrocytes at 1200 mg/L. The class given is cell-based, Erythrocyte. The settings on record: human, read-out: Activity.
The test system of data set [9] is Staphylococcus aureus. The data set is described as follows: Antibacterial activity against vancomycin-intermediate resistant Staphylococcus aureus clinical isolate in presence of 30% bovine serum after 24 hrs by broth microdilution method. The class given is functional.
For data set [10], the system named is Staphylococcus aureus. The data set is described as follows: Antibacterial activity against Staphylococcus aureus Smith in presence of 30% bovine serum after 24 hrs by broth microdilution method. It is filed as functional.
Data set [11] relates to Enterococcus faecalis. Briefly: Antibacterial activity against vancomycin-resistant Enterococcus faecalis in presence of 30% bovine serum after 24 hrs by broth microdilution method. The class given is functional.
Data set [12] concerns Enterococcus faecium. Briefly: Antibacterial activity against vancomycin A-resistant Enterococcus faecium clinical isolate in presence of 30% bovine serum after 24 hrs by broth microdilution method. The class given is functional.
Data set [13] is described as follows: Toxicity assessed as hemolysis in erythrocytes at 600 mg/L. The class given is cell-based, Erythrocyte. The settings on record: human, read-out: Activity.
A short description of data set [14]: Toxicity assessed as hemolysis in erythrocytes at 300 mg/L. It is filed as cell-based, Erythrocyte. To be noted: human, read-out: Activity.
Data set [15] deals with Enterococcus faecalis. The data set is described as follows: Antibacterial activity against vancomycin A-resistant Enterococcus faecalis after 24 hrs by broth microdilution method. It is filed as functional. To be noted: read-out: MIC.
Data set [16] is described as follows: Toxicity assessed as hemolysis in erythrocytes at 180 mg/L. The class given is cell-based, Erythrocyte. To be noted: human, erythrocytes; read-out: Activity.
Data set [17] is described as follows: Toxicity assessed as hemolysis in erythrocytes at 90 mg/L. The class given is cell-based, Erythrocyte. To be noted: human, erythrocytes; read-out: Activity.
Data set [18] in a line: Toxicity assessed as hemolysis in erythrocytes at 400 mg/L. The class given is cell-based, Erythrocyte. The settings on record: human, read-out: Activity.
A short description of data set [19]: Toxicity assessed as hemolysis in erythrocytes at 200 mg/L. It is filed as cell-based, Erythrocyte. To be noted: human, read-out: Activity.
A short description of data set [20]: Toxicity assessed as hemolysis in erythrocytes at 100 mg/L. The class given is cell-based, Erythrocyte. To be noted: human, read-out: Activity.

For orientation: MIC means the lowest concentration that inhibits growth of the organism.

In brackets after ≈: the same amount, converted by molar mass.

Take `CC(C)C[C@@H]1NC(=O)CNC(=O)[C@H](c2ccc(O)cc2)NC(=O)[C@@H]([C@@H](C)O)NC(=O)[C@H](c2ccc(O[C@H]3O[C@H](CO)[C@@H](O)[C@H](O)[C@@H]3O[C@H]3O[C@H](CO)[C@@H](O)[C@H](O)[C@@H]3O)cc2)NC(=O)[C@@H](CCCN)NC(=O)[C@H](Cc2ccccc2)NC(=O)[C@H]([C@@H](C)O)NC(=O)[C@@H](c2ccc(O)cc2)NC(=O)[C@H](c2ccc(O)cc2)NC(=O)[C@@H](C(C)C)NC(=O)[C@@H](CCCN)NC(=O)[C@@H](c2ccc(O)cc2)NC(=O)[C@@H](CNC(=O)[C@H](CC(N)=O)NC(=O)Cc2ccccc2C(F)(F)F)[C@@H](C(N)=O)OC(=O)[C@H](c2ccc(O)c(Cl)c2)NC(=O)[C@@H](C)NC1=O`: the MIC in the data set on Enterococcus faecalis [1] is not above 0.125 µg/mL; in the data set on Staphylococcus aureus [2] it was not above 0.125 µg/mL; with Staphylococcus aureus [3] it was not above 0.125 µg/mL; in the data set on Staphylococcus aureus [4] it was 2 µg/mL (≈ 0.764 µM); in the data set on Staphylococcus aureus [5], 1 µg/mL (≈ 0.382 µM); with Streptococcus pyogenes, not above 0.125 µg/mL. Moreover, the MIC in the data set with Enterococcus faecium [6] was 0.5 µg/mL (≈ 0.191 µM); in the data set on Enterococcus faecium [7], 0.25 µg/mL (≈ 0.0956 µM); in the data set on Escherichia coli it was more than 128 µg/mL; in the data set with Candida albicans, more than 128 µg/mL; in the data set with Staphylococcus aureus [9] it was 4 µg/mL; with Staphylococcus aureus [10] it was 1 µg/mL. Further, the results for the MIC with Enterococcus faecalis [11] and in the data set with Enterococcus faecium [12] were 0.5 µg/mL and 2 µg/mL, respectively. The hemolysis at 1200 mg/L in [8] was 51%. In data set [13], the hemolysis at 600 mg/L came to 5%. Further, the hemolysis at 300 mg/L in data set [14] is 3%.

With `CCc1ccccc1CC(=O)N[C@@H](CC(N)=O)C(=O)N[C@@H]1C(=O)N[C@H](c2ccc(O)cc2)C(=O)N[C@H](CCCN)C(=O)N[C@H]([C@@H](C)O)C(=O)N[C@@H](c2ccc(O)cc2)C(=O)N[C@H](c2ccc(O)cc2)C(=O)N[C@@H]([C@H](C)O)C(=O)N[C@@H](Cc2ccccc2)C(=O)N[C@H](CCCN)C(=O)N[C@@H](c2ccc(O[C@H]3O[C@H](CO)[C@@H](O)[C@H](O)[C@@H]3O[C@H]3O[C@H](CO)[C@@H](O)[C@H](O)[C@@H]3O)cc2)C(=O)N[C@H]([C@@H](C)O)C(=O)N[C@@H](c2ccc(O)cc2)C(=O)NCC(=O)N[C@@H](CC(C)C)C(=O)N[C@H](C)C(=O)N[C@@H](c2ccc(O)c(Cl)c2)C(=O)O[C@@H]1C(N)=O`, the hemolysis at 1200 mg/L in [8] came out at 76%. Further, the hemolysis at 600 mg/L in data set [13] was determined as 1%. In data set [14], the hemolysis at 300 mg/L is 1%.

On to `CCCCCCCC(=O)N[C@@H](CC(N)=O)C(=O)NC[C@@H]1C(=O)N[C@H](c2ccc(O)cc2)C(=O)N[C@H](CCCN)C(=O)N[C@H](C(C)C)C(=O)N[C@@H](c2ccc(O)cc2)C(=O)N[C@H](c2ccc(O)cc2)C(=O)N[C@@H]([C@@H](C)O)C(=O)N[C@@H](Cc2ccccc2)C(=O)N[C@H](CCCN)C(=O)N[C@@H](c2ccc(O[C@H]3O[C@H](CO)[C@@H](O)[C@H](O)[C@@H]3O[C@H]3O[C@H](CO)[C@@H](O)[C@H](O)[C@@H]3O)cc2)C(=O)N[C@H]([C@@H](C)O)C(=O)N[C@@H](c2ccc(O)cc2)C(=O)NCC(=O)N[C@@H](CC(C)C)C(=O)N[C@H](C)C(=O)N[C@@H](c2ccc(O)c(Cl)c2)C(=O)O[C@@H]1C(N)=O.Cl`, for which the MIC was 0.125 µg/mL in the data set on Enterococcus faecalis [1]; 0.125 µg/mL in the data set on Staphylococcus aureus [2]; 0.25 µg/mL in the data set on Staphylococcus aureus [3]; 2 µg/mL in the data set on Staphylococcus aureus [4]; 1 µg/mL in the data set with Staphylococcus aureus [5]; 0.06 µg/mL with Streptococcus pyogenes. The MIC is 0.125 µg/mL in the data set with Enterococcus faecalis [15]; 0.125 µg/mL in the data set with Enterococcus faecium [6]; less than 0.06 µg/mL with Enterococcus faecium [7]; more than 128 µg/mL in the data set on Escherichia coli; more than 128 µg/mL with Candida albicans; 2 µg/mL in the data set with Staphylococcus aureus [9]. The MIC in the data set on Staphylococcus aureus [10], with Enterococcus faecalis [11] and with Enterococcus faecium [12] was 1 µg/mL in each case. Moreover, the hemolysis at 180 mg/L in [16] amounted to 16%. For the same molecule, the hemolysis at 90 mg/L in data set [17] came to 0%. Besides, in data set [18], the hemolysis at 400 mg/L turned out to be 59%. Moreover, the hemolysis at 200 mg/L in data set [19] was 5%. The hemolysis at 100 mg/L in [20] was found to be 0%.

The values are drawn from ChEMBL document CHEMBL1145390, “Synthesis and preliminary biological characterization of new semisynthetic derivatives of ramoplanin” (J Med Chem, 2007).
